Reference: ChEMBL document CHEMBL1201862, “PubChem BioAssay data set” (2004)
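48-hour exposure; five concentrations; linearly interpolated endpoints. The concentration for 50% growth inhibition is given as GI50.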 Calls of active or inactive are those of the source. Rule as the data show it: active = GI50 up to about 1.1 µM and inactive = higher.

What was measured:
Assay in all cases: NCI anticancer screen, dose series, 48 h
[1] = test system: A549
[2] = test system: ACHN
[3] = test system: BT-549
[4] = test system: EKVX
[5] = test system: HCT-116
[6] = test system: HCT-15
[7] = test system: HT-29
[8] = test system: Hs-578T
[9] = test system: M14
[10] = test system: MDA-MB-231
[11] = test system: MDA-MB-435
[12] = test system: NCI-H522
[13] = test system: OVCAR-3
[14] = test system: OVCAR-8
[15] = test system: RPMI-8226
[16] = test system: SK-MEL-2
[17] = test system: SK-MEL-5
[18] = test system: SN12C
[19] = test system: SW-620
[20] = test system: UO-31

In the case of O=c1sc2c(s1)-c1sc(=O)sc1SS2, the GI50 [1] is reported as > 100 µM (inactive), the GI50 [2] is reported as > 100 µM (inactive) and the GI50 [3] is reported as > 100 µM (inactive). The GI50 [4] was > 76.2 µM (inactive), the GI50 [5] was > 100 µM (inactive) and the GI50 [6] was 18.7 µM. The GI50 [7] was > 42.1 µM (inactive), the GI50 [8] was 81.7 µM (inactive) and the GI50 [9] was 48.2 µM (inactive). For the same molecule, the GI50 [10] was > 100 µM (inactive), the GI50 [11] was > 100 µM (inactive) and the GI50 [12] was > 91.4 µM (inactive). For the same molecule, the GI50 [13] was > 100 µM (inactive), the GI50 [14] was 21.6 µM (inactive) and the GI50 [15] was > 100 µM (inactive). The GI50 [16] was > 100 µM (inactive), the GI50 [17] was > 56.5 µM (inactive) and the GI50 [18] was > 100 µM (inactive). The GI50 [19] was > 100 µM (inactive) and the GI50 [20] was > 100 µM (inactive).

CCOC1=C(c2ccccc2)N2CCCCC2O1 (stereo not given) was tested, and the GI50 [1] was 5.57 µM (inactive), the GI50 [2] was 4.68 µM (inactive) and the GI50 [3] was 5.33 µM (inactive). For the same molecule, the GI50 [4] was 5.19 µM (inactive), the GI50 [5] was 2.88 µM (inactive) and the GI50 [6] was 29 µM. For the same molecule, the GI50 [7] was 2.99 µM (inactive), the GI50 [8] was 6.12 µM (inactive) and the GI50 [9] was 3.46 µM (inactive). For the same molecule, the GI50 [10] was 3.61 µM (inactive), the GI50 [11] was 3.25 µM (inactive) and the GI50 [12] was 3.38 µM (inactive). The GI50 [13] was 3.79 µM (inactive), the GI50 [14] was 3.89 µM (inactive) and the GI50 [15] was 1.5 µM (inactive). For the same molecule, the GI50 [16] was 2.25 µM (inactive), the GI50 [17] was 1.7 µM (inactive) and the GI50 [18] was 8.85 µM (inactive). For the same molecule, the GI50 [19] was 4.21 µM (inactive) and the GI50 [20] was 19.8 µM (inactive).

In the case of Nc1nc(SCC(=O)c2ccc(Br)cc2)c2nc[nH]c2n1, the GI50 [1] is reported as 55 µM (inactive), the GI50 [2] is reported as 34 µM (inactive) and the GI50 [3] is reported as 27 µM (inactive). For the same molecule, the GI50 [4] was 38.5 µM (inactive), the GI50 [5] was 31.2 µM (inactive) and the GI50 [6] was 30.1 µM. The GI50 [7] was 44.6 µM (inactive), the GI50 [8] was 21.6 µM (inactive) and the GI50 [9] was 40.5 µM (inactive). The GI50 [10] was 52.1 µM (inactive), the GI50 [11] was 35.2 µM (inactive) and the GI50 [12] was 17.8 µM (inactive). The GI50 [13] was 32.3 µM (inactive), the GI50 [14] was 28.8 µM (inactive) and the GI50 [15] was 17.1 µM (inactive). For the same molecule, the GI50 [16] was 32.1 µM (inactive), the GI50 [17] was 20 µM (inactive) and the GI50 [18] was 34.4 µM (inactive). The GI50 [19] was 46.6 µM (inactive) and the GI50 [20] was 27.4 µM (inactive).

For O=C(Cn1c2ccc(Br)cc2c2nc3ccccc3nc21)NNC(=S)NC1CCCCC1, the GI50 [1] was 10.6 µM (inactive), the GI50 [2] was 16 µM (inactive) and the GI50 [3] was 19.9 µM (inactive). For the same molecule, the GI50 [4] was 18.6 µM (inactive), the GI50 [5] was 13.9 µM (inactive) and the GI50 [6] was 12 µM. The GI50 [7] was 15.5 µM (inactive), the GI50 [8] was 24.5 µM (inactive) and the GI50 [9] was 11.9 µM (inactive). For the same molecule, the GI50 [10] was 15.8 µM (inactive), the GI50 [11] was 13.8 µM (inactive) and the GI50 [12] was 14.5 µM (inactive). The GI50 [13] was 10.8 µM (inactive), the GI50 [14] was 14.7 µM (inactive) and the GI50 [15] was 13.9 µM (inactive). For the same molecule, the GI50 [16] was 17.2 µM (inactive), the GI50 [17] was 14.2 µM (inactive) and the GI50 [18] was 21.3 µM (inactive). The GI50 [19] was 15.8 µM (inactive) and the GI50 [20] was 10.5 µM (inactive).

O=C(/C=C/c1csc(-c2ccccc2)n1)NCc1ccc(C(=O)NCCc2ccccc2)cc1 was tested, and the GI50 [1] was 26.7 µM (inactive), the GI50 [2] was 19.3 µM (inactive) and the GI50 [3] was 22.3 µM (inactive). For the same molecule, the GI50 [4] was 93.5 µM (inactive), the GI50 [5] was 26.9 µM (inactive) and the GI50 [6] was 93.5 µM. The GI50 [7] was 5.09 µM (inactive), the GI50 [8] was 7.05 µM (inactive) and the GI50 [9] was 39.8 µM (inactive). The GI50 [10] was 5.38 µM (inactive), the GI50 [11] was > 100 µM (inactive) and the GI50 [12] was 34.6 µM (inactive). For the same molecule, the GI50 [13] was 63.8 µM (inactive), the GI50 [14] was 4.23 µM (inactive) and the GI50 [15] was > 100 µM (inactive). The GI50 [16] was 32 µM (inactive), the GI50 [17] was 69.5 µM (inactive) and the GI50 [18] was 44.9 µM (inactive). For the same molecule, the GI50 [19] was 74.5 µM (inactive) and the GI50 [20] was 48.1 µM (inactive).

In the case of COc1ccc2c(c1C)C(=O)C(O)(CC=C(C)C)O2 (stereo not given), the GI50 [1] is reported as > 100 µM (inactive), the GI50 [2] is reported as > 100 µM (inactive) and the GI50 [3] is reported as > 100 µM (inactive). The GI50 [4] was > 100 µM (inactive), the GI50 [5] was > 100 µM (inactive) and the GI50 [6] was over 100 µM. The GI50 [7] was > 100 µM (inactive), the GI50 [8] was > 100 µM (inactive) and the GI50 [9] was > 100 µM (inactive). The GI50 [10] was > 100 µM (inactive), the GI50 [11] was > 100 µM (inactive) and the GI50 [12] was > 100 µM (inactive). For the same molecule, the GI50 [13] was > 100 µM (inactive), the GI50 [14] was > 100 µM (inactive) and the GI50 [15] was > 100 µM (inactive). For the same molecule, the GI50 [16] was > 100 µM (inactive), the GI50 [17] was > 100 µM (inactive) and the GI50 [18] was > 100 µM (inactive). The GI50 [19] was > 100 µM (inactive) and the GI50 [20] was > 100 µM (inactive).
